Measured values as given in US6979447B2, “Immunomodulation and effect on cell processes relating to serotonin family receptors” (Philadelphia Health and Education Corporation, priority 2001, dated 2005).
pIC50: −log10 of the molar value.

Experiments:
human lymphocytes [1] = test: Viable cell counts (trypan blue) during ConA stimulation of human lymphocytes; format: cell-based; settings: ConA 10 μg/ml, manual trypan blue counts, FIG. 11
Protocol: FIG. 11 is a diagram depicting the effect of a 5HT type 1 receptor antagonist and a 5HT type 2 receptor antagonist on the cell numbers occurring during the mitogenic stimulation of human lymphocyte activation. The cells were stimulated with 10 μg/ml ConA. The cells were repurified on a Ficoll gradient prior to addition of the inhibitor. Trypan blue exclusion was used to count the viable cells.
To further assess the effects of propanolol (a general 5-HTR 1 antagonist) and risperidone (a general 5-HTR 2 antagonist) on the mitogenically stimulated lymphocyte culture, the number of viable cells were manually counted as the assay progressed. If the cells were not stimulated, there was no detectable change in the number of viable cells. When the cells were stimulated with ConA, a small lag period was observed and the beginning of the growth phase compared to the stimulation response curve observed in the absence of the inhibitor. […] Apparently, there is no decrease or increase compared with the starting cell numbers. It is unclear whether or not this is due too anergy, an inability to initiate the activation pathway, or both. […] Thus, based on the data presented here, the classes of antagonists that inhibit the type 2 serotonin receptors appear to be rate limiting for the lymphocyte activation processes.

[2] = tested on: allogeneic CTL response to P815 cells; test: Murine allograft model, CTL killing of P815 target cells by splenocytes; format: in vivo, C57BL/6J mice; settings: tail vein bolus 200 μg/injection on days 6 and 8, sacrificed day 14, FIG. 13
Protocol: The in vivo validation screen used was an art-recognized murine allogeneic rejection model as described in Zhan et al., 2000. For this assay, a complete MHC miss-match system was employed wherein 5×10^6 P815 cells ([H-2^d] DBA/2 mastocytoma) were injected into the peritoneal cavity of C57BL/6J (H-2^b) mice on day 0 of the experiment. These mice typically generate a strong cytotoxic T lymphocyte (CTL) reaction in response to P815 cells. Following the initial P815 cell inoculation, the mice were allowed to develop a CTL response (this usually takes about 10-14 days). […] Mice were then sacrificed on day 14 of the experiment as indicated in the figures; and the allogeneic CTL response was assayed as described previously (Tretiakova et al., 2000, Nature Biotechnology 18:984-988). The primary spleen cells from the treated and untreated animals were used in the direct CTL readout. Freshly obtained primary spleen cells were incubated with the [^3H] labeled target cells (P815 cells) at 100:1, 50:1, 25:1, and 12.5:1 ratios for 3.5 hours at 37° C. and harvested using a PHD harvester. The percentage of specific killing was determined using the formula % kill=(S−E)/S, where S is the amount of the DNA retained by the target cells in the absence of the effector cells and E is the amount of retained DNA in the presence of the effector cells (expressed in counts per minute; cpm).
This is an art-recognized model of allograft […] rejection based on that described by […]. (2000). In this model, there is a complete MHC mismatch between the P815 cells (H-2^d) and the C57BL6 mouse (H-2^b), thus ensuring an aggressive immune response. The data disclosed in FIG. 13, depicts results of experiments that included 6 treatment groups, each group consisting of three mice. Each mouse received 5×10^6 P815 cells injected into the peritoneal cavity on day 0 of the study. The first group was an untreated control group, which was used to establish the baseline response of the mice against the allogeneic stimulus. These mice, without any further treatments, were sacrificed, as were the other treatment groups, on day 14 of the study and their splenocytes assayed for target-specific killing of the P815 cells.
The average kill observed for the untreated group was about 45% at an effector to target ratio of 100:1. […] The timing of the drug administration was selected to ensure that the T cells were fully activated prior to the drug treatment. The third group was treated with propanolol, a 5HT-1 antagonist. All of the 5HT receptor antagonist-treated groups were treated as described for the risperidone-treated group. The fourth group was treated chronically with CyclosporinA. The Cyclosporin A was administered ip at a dosage of 100 μg/injection starting two days prior to the onset of the study, i.e., at day-2, and the injections were continued on a daily basis for the duration of the study.
Finally, studies conducted in vivo using the CD8-dependent allograft rejection model, in which P815 cells (a rapidly growing cell line taken from a mastocytoma in a DBA mouse), were expanded and used to create a robust rejection response in a C57BL6 mouse. In this study the mice received 5×10^6 P815 cells injected into their peritoneal cavity on day 0 of the study. The first group was an untreated control group (naïve animals), used to acquire the baseline response of the mice against the allogeneic stimulus. The positive controls were treated with the allogeneic cells without any further treatments. These animals were used to assess the induced allogeneic response against the P815 cells.
All treatment groups were sacrificed on day 14 of the study and their splenocytes assayed for target-specific killing of the P815 cells (the averaged overall kill observed for the positive control group was about 45% at an effector to target ratio of 100:1). The serotonin-specific compounds were administered via tail vein injection (300 μg/injection) on days 5 and 7 of the study. […]

human lymphocytes [3] = test: Human mitogenic (ConA) stimulation, 3H-thymidine incorporation; format: cell-based; settings: harvested 72 hours
Protocol: Blood from healthy volunteers was drawn using venipuncture, using Vacutainer collection sets and heparinized collection vials. The blood was diluted 1:1 using HBSS to a total volume of 30 ml in 50 ml conical tubes (Fisher Scientific, Co., Pittsburgh, Pa.). […] Cells from the buffy coats were collected and the residual Histopaque was washed away using repeated centrifugations in HBSS. After washes, cells were resuspended at 5 million cells per ml in RPMI, supplemented with 2% FBS. To remove adherent cells, the suspension was plated onto a 6 well flat-bottom plate (Corning Costar), 3 ml/well, and incubated for 2 hours at 37° C., 5% CO2. Non-adherent cells were harvested after this incubation, were counted and resuspended in RPMI supplemented with 10% human serum (Sigma).
All drugs were pre-plated before the cell suspension was added onto each well of a 96-well round-bottom plate. All experimental conditions were assayed in at least triplicate. Cells suspended in RPMI supplemented with 10% human serum were plated at 100,000 cells per well to a final volume of 200 μl. […] Control samples received no ConA stimulation. The plates were incubated at 37° C. and 5% CO2. One microCurie of tritiated thymidine was added to each well after 60 hours, and the plates were harvested 12 hours later.

human lymphocytes [4] = test: Human mixed lymphocyte reaction (allogeneic stimulation); format: cell-based; settings: harvested 120 hours
From the text: Blood from two healthy, non-related, donors was taken as described above. Peripheral blood mononuclear cells were isolated as described previously elsewhere. The adherent cells were separated from the suspension cells as described previously for both donors. Suspension cells from both donors (donors A and B) were used as responders. The remaining adherent cells from each of the donors were used as stimulators against a different donor (suspension A against adherent B and adherent A against suspension B). The stimulator cells were irradiated at 35 Gy. Drugs were pre-plated onto 96 well, U-bottom plates in triplicate. 200,000 “stimulator” cells in RPMI supplemented with 10% human serum were then plated in each well. 200,000 “responder” cells in the same medium were then plated over stimulators to a final volume of 200 μl/well. Background controls received either no stimulator cells, or no responder cells. The plates were incubated at 37° C. and 5% CO2. 1 μCi of tritiated thymidine was added to each well after 4.5 days, and the plates were harvested 12 hours later.

[5] = tested on: RPMI 8226 multiple myeloma cells; test: RPMI 8226 cell proliferation / viability (trypan blue, MTT, 3H-thymidine); format: cell-based, human; settings: low dose-titration, FIGS. 23, 24 and 25
Protocol: The human plasmacytoma (multiple myeloma) cell line, RPMI 8226 (American Type Culture Collection, Manassas, Va.), was cultured in RPMI 1640 supplemented with 10 mM HEPES, 1 mM sodium pyruvate, 4.5 g/L glucose, 1.5 g/L bicarbonate and 20% FBS (non-heat inactivated).
Cell proliferation was assayed by three methods—Trypan Blue Exclusion was used to quantify the number of viable cells in culture; 3-(4,5-dimethylthiazol-2-yl)-2,5-diphenyl tetrazolium bromide (MTT) reduction was used to assay mitochondrial activity (and thus cell viability); and ^3H-Thymidine uptake was employed to assay for active DNA synthesis.
The following 5-HT receptor modulating compounds were tested for their effects on RPMI 8226 cells in vitro cultured at the described densities and across the indicated concentration ranges.

RPMI-8226 cells = test: Hematoxylin-eosin / bis-benzamide staining of RPMI-8226 cytospins; format: cell-based, human
Protocol: 2.0×10^5 RPMI-8226 cells were cultured, in 6-well culture plates, in the presence of the indicated drug concentrations, in a total of 5 mL RPMI-1640 supplemented with 10% FBS. Each well was harvested in its entirety and divided into two identical samples for cytospins.
1.0×10^5 RPMI-8226 cells from each treatment group were loaded into Cyto-funnels and centrifuged at 500 rpm for 4 minutes with medium acceleration. Slides were then fixed through graded methanol in PBS (100%, 5 minutes; 80%, 5 minutes; 50%, 5 minutes), washed for 5 minutes in PBS and stored in PBS at 4° C. until stained.
Cytospun slides were stained with Hematoxylin and Eosin, followed by the nuclear stain, bis-benzamide, rinsed and mounted according to standard staining protocols. Slides were visualized under both brightfield and fluorescent light to generate matched images of the same slide field (see, e.g., FIGS. 28 and 29).

cells = test: Cell morphology change on inhibition of serotonergic signalling; format: cell-based; settings: after 24 hours of treatment, FIG. 30
Protocol: Briefly, cells were incubated with a 5-HTR antagonist (e.g., a selective type 1B inhibitor SD 216641) and the effects of treatment were assessed after 24 hours. […] For instance, detection of cell changes can be assessed using optical instruments (electron and light microscopy, as well as fluorescence activated cell sorting, and the like), or any other device that assesses and detects changes in cell size, density, morphology, and the like. Such devices are well known in the art and are not recounted here.

| SMILES | effect on number of viable cells (human lymphocytes [1]) | effect on allograft (CTL) response [2] | effect on activation / proliferative response (human lymphocytes [3]; ConA 5 μg/ml, FIGS. 7A, 8A, 9A) | pIC50 (human lymphocytes [3]; ConA (5 μg/ml) stimulation of human lymphocytes, FIG. 7A, read-out: apparent IC50) | effect on activation / proliferative response (human lymphocytes [4]; allogeneic stimulation, FIGS. 7B, 8B, 9B) | pIC50 (human lymphocytes [4]; allogeneic stimuli (mixed lymphocyte reaction), FIG. 7B, read-out: apparent IC50) | effect on growth of RPMI-8226 cells [5] | chromatin / nuclear morphology (RPMI-8226 cells; 50 μM, 9 hour treatment, FIGS. 28, 29) | induction of programmed cell death (RPMI-8226 cells; FIGS. 28 and 29) | change in cell morphology (cells) |
| --- | --- | --- | --- | --- | --- | --- | --- | --- | --- | --- |
| CC(C)NC[C@H](O)COc1cccc2ccccc12 (racemic) [propanolol] | prevents the cell from growing | did not protect the mice from the allograft rejection response | – | – | – | – | – | – | – | – |
| COc1ccc(NC(=O)c2ccc(-c3ccc(-c4noc(C)n4)cc3C)cc2)cc1OCCN(C)C [SB 216641] | – | – | complete inhibition of the activation response | ~6.70 | complete inhibition of the activation response | ~7.30 | completely inhibited the growth of the cancer cells | Extensive chromatin condensation and nuclear fragmentation | induced programmed cell death comparable to that induced by the topoisomerase I inhibitor, camptothecin | an increase in cell size |
| Cc1nc2n(c(=O)c1CCN1CCC(c3noc4cc(F)ccc34)CC1)CCCC2 [risperidone] | caused a brief cell increase, followed by the elimination of the cells in culture | inhibited the allograft response to varying degrees | – | – | – | – | – | – | – | – |
